Assay results as given in patent US20240391889A1, “ANTIMICROBIAL COMPOUNDS AND THE METHODS OF USE” (priority 2021, published 2024).
Where two headings read alike, the source gives them in different places. Numbered stars: 1 amine (or outer) side, 2 acyl side, 3 side chain; on linkers, the order of the positions; unused ones are H or OH. Square brackets hold non-standard residues; d marks the D form. Peptide text beside a SMILES is read from it. N(tridecyl)Gly = CCCCCCCCCCCCCNCC(=O)O; X1 = CC(c1ccccc1)N(CC(=O)[*:2])[*:1]; NFurfurylGly = O=C(O)CNCc1ccco1; Gly(N(CH2)3NH2) = NCCCNCC(=O)O; Nphe = O=C(O)CNCc1ccccc1; NPrGly = CCCNCC(=O)O; Nlys = NCCCCNCC(=O)O

Tests used:
[1] = test system: Klebsiella pneumoniae ATCC 13883; experiment: Bacterial MIC assay, K. pneumoniae; type: cell-based; details: 24 h, CAMHB
Source text: This screening led to the discovery of RMG9-11 (FIG. 2C). The minimum inhibitory concentration (MIC) of resynthesized RMG9-11 was initially determined against C. albicans, C. neoformans, and the ESKAPE bacteria via CSLI guidelines (CLSI. Methods for Dilution Antimicrobial Susceptibility Tests for Bacteria That Grow Aerobically, 11th Edition. Clinical and Laboratory Standards Institute (2018); CLSI. Reference method for broth dilution antifungal susceptibility testing of yeasts; approved standard-third edition; CLSI document M27-A3. Clinical and Laboratory Standards Institute (2008)). […]
The minimum inhibitory concentration (MIC) of peptoids against the ESKAPE bacteria (Enterococcus faecium ATCC 6569; Staphylococcus aureus ATCC 29213; Klebsiella pneumoniae ATCC 13883; Acinetobacter baumanii ATCC 19606; Pseudomonas aeruginosa ATCC 25619; Enterococcus faecalis ATCC 29212; and Escherichia coli ATCC 25922) was determined following CLSI guidelines (CLSI. Methods for Dilution Antimicrobial Susceptibility Tests for Bacteria That Grow Aerobically, 11th Edition. Clinical and Laboratory Standards Institute, 2018). The MIC against Mycobacterium smegmatis was also determined following CLSI guidelines (Woods, G. L. et al. Susceptibility Testing of Mycobacteria, Nocardiae, and Other Aerobic Actinomycetes, 2nd edition. (2011)). […]

[2] = test system: Pseudomonas aeruginosa ATCC 25619; type: cell-based; details: ATCC 25619, 24 h
Source text: (§1) This screening led to the discovery of RMG9-11 (FIG. 2C). The minimum inhibitory concentration (MIC) of resynthesized RMG9-11 was initially determined against C. albicans, C. neoformans, and the ESKAPE bacteria via CSLI guidelines (CLSI. Methods for Dilution Antimicrobial Susceptibility Tests for Bacteria That Grow Aerobically, 11th Edition. Clinical and Laboratory Standards Institute (2018); CLSI. Reference method for broth dilution antifungal susceptibility testing of yeasts; approved standard-third edition; CLSI document M27-A3. Clinical and Laboratory Standards Institute (2008)). […] C. albicans clinical isolates include a reference strain (M1), fluconazole susceptible strains (M4 and M6), and fluconazole resistant strains (M2, M3, M5, and M7). ATCC 64124 is multidrug resistant C. albicans strain that is resistant to amphotericin B, fluconazole, caspofungin, and flucytosine. All MICs were performed under CSLI guidelines in triplicate on at least three different days.
(§2) The minimum inhibitory concentration (MIC) of peptoids against the ESKAPE bacteria (Enterococcus faecium ATCC 6569; Staphylococcus aureus ATCC 29213; Klebsiella pneumoniae ATCC 13883; Acinetobacter baumanii ATCC 19606; Pseudomonas aeruginosa ATCC 25619; Enterococcus faecalis ATCC 29212; and Escherichia coli ATCC 25922) was determined following CLSI guidelines (CLSI. Methods for Dilution Antimicrobial Susceptibility Tests for Bacteria That Grow Aerobically, 11th Edition. Clinical and Laboratory Standards Institute, 2018). The MIC against Mycobacterium smegmatis was also determined following CLSI guidelines (Woods, G. L. et al. Susceptibility Testing of Mycobacteria, Nocardiae, and Other Aerobic Actinomycetes, 2nd edition. (2011)). Colonies picked from streaked tryptic soy agar plates were added to tryptic soy broth (TSB) to achieve a turbidity of OD600=0.08-0.15. Inoculant was diluted 1:200 into cation adjust Mueller Hinton Broth (CAMHB) and 90 μL was plated into each well of a 96 well black-wall plate. 2-fold serial dilutions of 10× peptoid (10 μL) were added to each well in triplicate and incubated at 37° C. for 24 hours for the ESKAPE bacteria and 72 hours for M. smegmatis. Tetracycline (20 μg/mL) was used as a positive control with DI water was used as a vehicle control. Following incubation for the ESKAPE bacteria, PRESTO BLUE (10 μL) was added to each well and incubated at 37° C. for one hour before measuring fluorescence on a SPECTRAMAX M5 plate reader (Ex. 555 nm; Em. 585 nm). Following incubation for M. smegmatis, wells were scored following CLSI guidelines to determine MIC. This assay was repeated three times on separate days.

[3] = test system: Staphylococcus aureus ATCC 29213; type: cell-based; details: 24 h, CAMHB
Source text: as §1, §2

[4] = test system: Enterococcus faecium ATCC 6569; type: cell-based; details: ATCC 6569, 24 h
Source text: as §1, §2

C. auris = experiment: MIC assay, C. auris; type: cell-based, Candida auris
C. albicans = type: cell-based, Candida albicans
Source text: One of the most serious crises facing both new and existing antimicrobial compounds is the rapid development of resistance by pathogens to that compound, rendering it useless. This has been an issue observed with all major commercially available antimicrobial drugs and is an increasingly prevalent issue with antifungal drugs (Clatworthy et al., Nat. Chem. Biol. 3, 541-548 (2007); Wiederhold et al., Infect. Drug Resist. 10, 249-259 (2017)). The ability of C. albicans to gain resistance against RMG9-11 was evaluated using two techniques; serial and single passage. Ching et al. described a method for single passage assessment of gain of resistance, which was used here with RMG9-11 (Ching et al., Sci. Rep. 10, 8754 (2020)). Briefly, a single colony of C. albicans was incubated overnight in RPMI-MOPS. Fungal cultures were then incubated for either 24 or 48 hours with concentrations of RMG9-11 ranging from 0 to 80% MIC. […] To further solidify this finding, C. albicans were introduced to increasing concentrations of RMG9-11 through a serial passage gain of resistance assay, as described by Samuelsen et al. (Samuelsen et al., FEBS Lett. 579, 3421-3426 (2005)). […] One main difference between serial and single passage assays is in the inoculation method from one passage to the next. The single passage relies on one individual colony while the serial passage focuses on a set concentration of fungi (cells/mL). At the end of serial passage, C. albicans that had been exposed to gradually increasing concentrations of RMG9-11 were used to prepare a traditional MIC assay. In theory, if fungi had evolved resistance during serial passage with sub-MIC antifungal agent, the MIC of RMG9-11 against these fungi should increase. […] To our knowledge, this is the first evaluation of the ability of a microbe to gain resistance to a peptoid, though it has long been hypothesized that gaining resistance to peptoids is unlikely.
A second gain of resistance through single passage was done for RMG9-11 against C. albicans following previously published methods as a confirmation of serial passage results (Ching et al., Sci. Rep. 10, 8754 (2020)). A single C. albicans colony was inoculated into RPMI-MOPS (pH 7; 5 mL) and incubated overnight (200 RPM; 37° C.). […] The following day, an MIC was performed with these cell solutions to evaluate gain of resistance after 48 hours. This assay was performed with four separate streaked plates from frozen stocks for biological replicate.

[5] = test system: Gram-negative and Gram-positive bacteria; type: cell-based; details: with the exception of K. pnuemoniae
Source text: The ESKAPE bacteria consist of the most common multidrug resistant and nosocomial bacterial pathogens including both Gram-positive and Gram-negative species (Pendleton et al., Expert Rev. Anti-infect. Ther. 11, 297-308 (2013)). […] The broad-spectrum antimicrobial activity of RMG9-11 naturally lead to concerns about mammalian cytotoxicity, especially since the membranes of fungi and mammals have similar phospholipid compositions.
The minimum inhibitory concentration (MIC) of peptoids against the ESKAPE bacteria (Enterococcus faecium ATCC 6569; Staphylococcus aureus ATCC 29213; Klebsiella pneumoniae ATCC 13883; Acinetobacter baumanii ATCC 19606; Pseudomonas aeruginosa ATCC 25619; Enterococcus faecalis ATCC 29212; and Escherichia coli ATCC 25922) was determined following CLSI guidelines (CLSI. Methods for Dilution Antimicrobial Susceptibility Tests for Bacteria That Grow Aerobically, 11th Edition. Clinical and Laboratory Standards Institute, 2018). The MIC against Mycobacterium smegmatis was also determined following CLSI guidelines (Woods, G. L. et al. Susceptibility Testing of Mycobacteria, Nocardiae, and Other Aerobic Actinomycetes, 2nd edition. (2011)). […] Following incubation for the ESKAPE bacteria, PRESTO BLUE (10 μL) was added to each well and incubated at 37° C. for one hour before measuring fluorescence on a SPECTRAMAX M5 plate reader (Ex. 555 nm; Em. 585 nm). […]

C. krusie = type: cell-based, Candida krusie
C. parapsilosis = type: cell-based, Candida parapsilosis

CCCCCCCCCCCCCNCC(=O)N(CCC)CC(=O)N(CC(=O)N(CCCCN)CC(=O)N(CC(=O)N(CC(=O)N(CCCN)CC(N)=O)Cc1ccccc1)Cc1ccco1)C(C)c1ccccc1 (stereo not drawn) [RMG9-11] (H-[N(tridecyl)Gly][NPrGly][X1][Nlys][NFurfurylGly][Nphe][Gly(N(CH2)3NH2)]-NH2)
3.13 mg/L: MIC E. faecium [4] | MIC C. krusie (C. krusie)
12.5 mg/L: MIC P. aeruginosa [2] | MIC C. auris (C. auris)
50 mg/L: MIC K. pneumonia [1]
3.13 to 12.5 mg/L: activity against Gram-negative and Gram-positive bacteria (MIC) [5]
unable to develop resistance: ability of C. albicans to develop resistance (C. albicans; single passage, in words)
6.25 mg/L: MIC S. aureus [3] | Single Passage 24 h MIC (C. albicans; C. albicans pre-exposed 24 h to 0% MIC RMG9-11) | Single Passage 24 h MIC (C. albicans; pre-exposed 24 h to 10% MIC) | Single Passage 24 h MIC (C. albicans; pre-exposed 24 h to 20% MIC) | Single Passage 24 h MIC (C. albicans; pre-exposed 24 h to 40% MIC) | Single Passage 24 h MIC (C. albicans; pre-exposed 24 h to 60% MIC) | Single Passage 24 h MIC (C. albicans; pre-exposed 24 h to 80% MIC) | Single Passage 48 h MIC (C. albicans; pre-exposed 48 h to 0% MIC) | Single Passage 48 h MIC (C. albicans; pre-exposed 48 h to 10% MIC) | Single Passage 48 h MIC (C. albicans; pre-exposed 48 h to 20% MIC) | Single Passage 48 h MIC (C. albicans; pre-exposed 48 h to 40% MIC) | Single Passage 48 h MIC (C. albicans; pre-exposed 48 h to 60% MIC) | Single Passage 48 h MIC (C. albicans; pre-exposed 48 h to 80% MIC) | MIC C. parapsilosis (C. parapsilosis)
